One data set has as its system UO-31. The experiment in a line: Growth inhibition of human UO31 cells incubated for 48 hrs by sulforhodamine B assay. Particulars: UO-31, 48 h. Type of data set: functional.
The next data set has as its system 786-0. The experiment in a line: Growth inhibition of human 786-O cells incubated for 48 hrs by sulforhodamine B assay. Type of data set: functional. Conditions: 786-0, 48 h.
Another data set concerns OVCAR-4. The experiment in a line: Growth inhibition of human OVCAR4 cells incubated for 48 hrs by sulforhodamine B assay. Type of data set: functional. Conditions: OVCAR-4, 48 h.
The next data set concerns NCI-H226. The experiment in a line: Growth inhibition of human NCI-H226 cells incubated for 48 hrs by sulforhodamine B assay. Type of data set: functional. Conditions: NCI-H226, 48 h.
The next data set has as its system SF-539. The experiment in a line: Growth inhibition of human SF539 cells incubated for 48 hrs by sulforhodamine B assay. Type of data set: functional. Conditions: SF-539, 48 h.
Another data set has as its system SN12C. The experiment in a line: Growth inhibition of human SN12C cells incubated for 48 hrs by sulforhodamine B assay. Type of data set: functional.
In another data set the test system is OVCAR-8. The experiment in a line: Growth inhibition of human OVCAR8 cells incubated for 48 hrs by sulforhodamine B assay. Conditions: OVCAR-8, 48 h. Type of data set: functional.
A short description of data set [1]: Antioxidant activity assessed as superoxide dismutase-like activity by measuring inhibition of superoxide radical anion production at 2 uM by NBT reduction assay relative to control. Type of data set: functional.
For the next data set, the system named is HL-60(TB). The experiment in a line: Growth inhibition of human HL-60(TB) cells incubated for 48 hrs by sulforhodamine B assay. Type of data set: functional. Conditions: HL-60, 48 h.
Another data set relates to SF-268. The experiment in a line: Growth inhibition of human SF268 cells incubated for 48 hrs by sulforhodamine B assay. Type of data set: functional. Conditions: SF-268, 48 h.
A short description of data set [2]: Safety index, ratio of compound IC50 to 5-fluorouracil IC50 for human WISH cells. Type of data set: ADME, cell-based. Particulars: read-out: Ratio IC50.
Data set [3] in a line: Safety index, ratio of compound IC50 to 5-fluorouracil IC50 for human WI38 cells. Conditions: WI-38 cells, read-out: Ratio IC50. Type of data set: ADME, cell-based.
A further data set relates to SK-MEL-2. The experiment in a line: Growth inhibition of human SK-MEL-2 cells incubated for 48 hrs by sulforhodamine B assay. Type of data set: functional. Particulars: SK-MEL-2, 48 h.
The next data set deals with U-251. The experiment in a line: Growth inhibition of human U251 cells incubated for 48 hrs by sulforhodamine B assay. Type of data set: functional. Conditions: U-251, 48 h.
Another data set deals with MOLT-4. The experiment in a line: Growth inhibition of human MOLT4 cells incubated for 48 hrs by sulforhodamine B assay. Particulars: MOLT-4, 48 h. Type of data set: functional.
Another data set deals with SF-295. The experiment in a line: Growth inhibition of human SF295 cells incubated for 48 hrs by sulforhodamine B assay. Particulars: SF-295, 48 h. Type of data set: functional.
The subject of the next data set is A549. The experiment in a line: Growth inhibition of human A549/ATCC cells incubated for 48 hrs by sulforhodamine B assay. Type of data set: functional. Particulars: A549, 48 h.
A short description of data set [4]: Inhibition of PTK in human MCF7 cells preincubated for 2 hrs followed by poly-Glu-Tyr substrate addition by ELISA. Type of data set: cell-based.
The next data set deals with CCRF-CEM. The experiment in a line: Growth inhibition of human CCRF-CEM cells incubated for 48 hrs by sulforhodamine B assay. Type of data set: functional.
A further data set relates to MDA-MB-231. The experiment in a line: Growth inhibition of human MDA-MB-231 cells incubated for 48 hrs by sulforhodamine B assay. Type of data set: functional. Conditions: MDA-MB-231, 48 h.
In the next data set the test system is T47D. The experiment in a line: Growth inhibition of human T47D cells incubated for 48 hrs by sulforhodamine B assay. Type of data set: functional.

Each structure is given as a SMILES string.

With `N=C(N)c1ccc(-c2ccc(-c3ccc(Cl)cc3)s2)cc1F`, the concentration for 50% growth inhibition (GI50) was 1.72 µM in the data set with UO-31; 0.192 µM in the data set with 786-0; 0.224 µM with OVCAR-4; 2.03 µM in the data set with NCI-H226; 0.206 µM in the data set with SF-539; 0.517 µM with SN12C. The concentration for 50% growth inhibition (GI50) was 0.983 µM with OVCAR-8; 0.212 µM in the data set with HL-60(TB); 0.197 µM in the data set on SF-268; 1.5 µM in the data set on SK-MEL-2; 0.203 µM with U-251; 0.243 µM in the data set with MOLT-4. The concentration for 50% growth inhibition (GI50) turned out to be 0.691 µM with SF-295, 0.217 µM in the data set on A549 and 0.194 µM with CCRF-CEM. The inhibition in [1] is 59%. Besides, the values for the selectivity ratio in data set [2] and in data set [3] were 9 and 6, respectively. In data set [4], the half-inhibitory concentration (IC50) is 0.107 µM.
Consider `N=C(N)c1ccc(-c2ccc(-c3ccc(F)cc3)s2)cc1`, for which the 50% growth inhibitory concentration (GI50) with UO-31 stood at 1.58 µM; with 786-0, 1.47 µM; in the data set on OVCAR-4, 1.63 µM; in the data set on NCI-H226, 2.19 µM; with MDA-MB-231, 1.56 µM; in the data set with SF-539 it was 1.62 µM. For the same molecule, the concentration for 50% growth inhibition (GI50) in the data set on SN12C was determined as 1.59 µM; in the data set on OVCAR-8, 2.11 µM; with HL-60(TB) it was 0.679 µM; in the data set with T47D, 1.2 µM; in the data set on SF-268 it was 1.54 µM; in the data set with SK-MEL-2, 2.05 µM. Further, the GI50 in the data set on U-251 was found to be 0.457 µM; with MOLT-4, 1.58 µM; in the data set on SF-295, 1.66 µM; with A549, 2.12 µM; in the data set on CCRF-CEM, 1.82 µM. Further, in data set [1], the inhibition came to 59.6%.
As to `N=C(N)c1ccc(-c2ccc(-c3ccccc3)s2)cc1F`, the 50% growth inhibitory concentration (GI50) was 2.68 µM in the data set on UO-31; 6.02 µM with 786-0; 10.4 µM in the data set with OVCAR-4; 12.9 µM in the data set with NCI-H226; 3.34 µM in the data set with MDA-MB-231; 4.74 µM with SF-539. Moreover, the GI50 worked out at 8.01 µM in the data set with SN12C; 11.3 µM in the data set on OVCAR-8; 2.14 µM with HL-60(TB); 5.13 µM with T47D; 11.2 µM with SF-268; 4.91 µM in the data set with SK-MEL-2. The concentration for 50% growth inhibition (GI50) was found to be 4.7 µM in the data set on U-251, 4.4 µM in the data set with MOLT-4, 5.1 µM in the data set on A549 and 3.2 µM with CCRF-CEM. Further, the inhibition in data set [1] turned out to be 54.5%.
In the case of `COc1cc(OC)cc(-c2ccc(-c3ccc(C(=N)N)cc3)s2)c1`, the 50% growth inhibitory concentration (GI50) in the data set with UO-31 was 1.77 µM; in the data set on 786-0, 1.87 µM; with OVCAR-4 it was 2.06 µM; with NCI-H226 it was 2.23 µM; in the data set with MDA-MB-231 it was 2.08 µM; in the data set on SF-539, 1.75 µM. Further, the GI50 is 1.97 µM in the data set on SN12C; 2.48 µM in the data set on OVCAR-8; 1.9 µM with HL-60(TB); 1.65 µM in the data set on T47D; 1.85 µM in the data set with SF-268; 1.95 µM in the data set on SK-MEL-2. Besides, the 50% growth inhibitory concentration (GI50) with U-251 amounted to 1.67 µM; in the data set with MOLT-4, 1.65 µM; in the data set on SF-295 it was 1.82 µM; in the data set on A549, 2.58 µM; in the data set on CCRF-CEM it was 1.88 µM. The inhibition in data set [1] was determined as 57%.
For `COc1ccc(-c2ccc(-c3ccc(C(=N)N)c(F)c3)s2)cc1`, the concentration for 50% growth inhibition (GI50) in the data set with UO-31 amounted to 3.17 µM; with 786-0, 3.93 µM; in the data set on OVCAR-4, 6.42 µM; in the data set on NCI-H226 it was 14.4 µM; with MDA-MB-231, 2.75 µM; in the data set with SF-539, 8.96 µM. Moreover, the GI50 in the data set on SN12C worked out at 5.97 µM; in the data set on OVCAR-8, 8.22 µM; in the data set with HL-60(TB), 2.19 µM; in the data set on T47D, 2.92 µM; with SF-268, 4.85 µM; in the data set on SK-MEL-2, 2.41 µM. Also, the 50% growth inhibitory concentration (GI50) with U-251 worked out at 2.92 µM; with MOLT-4, 3.26 µM; in the data set on A549, 4.76 µM; in the data set with CCRF-CEM, 3.11 µM. Besides, in data set [1], the inhibition was determined as 55%. The same molecule registered a half-inhibitory concentration (IC50) in data set [4] of 0.92 µM.
Consider `N=C(N)c1ccc(-c2ccc(-c3ccc(Cl)cc3)s2)cc1`, for which the concentration for 50% growth inhibition (GI50) with UO-31 was determined as 0.175 µM; in the data set on 786-0 it was 0.178 µM; in the data set with OVCAR-4, 0.172 µM; in the data set with NCI-H226 it was 0.451 µM; in the data set on MDA-MB-231 it was 0.184 µM; in the data set with SF-539 it was 0.171 µM. The GI50 in the data set with SN12C was 0.18 µM; with OVCAR-8, 0.223 µM; in the data set with HL-60(TB), 0.214 µM; in the data set on T47D it was 0.179 µM; in the data set with SF-268, 0.184 µM; in the data set with SK-MEL-2, 0.241 µM. Further, the GI50 in the data set on U-251 came to 0.172 µM; with MOLT-4 it was 0.207 µM; with SF-295, 0.171 µM; in the data set with A549, 0.202 µM; in the data set with CCRF-CEM, 0.2 µM. In data set [1], the inhibition came out at 60.6%. Further, in data set [4], inhibition was half-maximal at 0.013 µM (IC50).
Regarding `COc1cc(OC)cc(-c2ccc(-c3ccc(C(=N)N)c(F)c3)s2)c1`, the concentration for 50% growth inhibition (GI50) with UO-31 was determined as 0.473 µM; in the data set with 786-0, 0.174 µM; with OVCAR-4, 0.361 µM; in the data set on NCI-H226 it was 1.73 µM; in the data set with SF-539 it was 0.165 µM; in the data set with SN12C it was 0.712 µM. For the same molecule, the 50% growth inhibitory concentration (GI50) with OVCAR-8 was found to be 1.2 µM; with HL-60(TB), 0.229 µM; in the data set with SF-268, 1.15 µM; in the data set on SK-MEL-2, 1.86 µM; in the data set on U-251, 0.198 µM; in the data set with MOLT-4, 0.326 µM. Moreover, the GI50 in the data set with SF-295 was determined as 1.59 µM; in the data set on A549, 0.4 µM; with CCRF-CEM it was 0.306 µM. Besides, in [1], the inhibition was 55.5%. Besides, in data set [4], the IC50 was found to be 0.877 µM.

The record behind these values is ChEMBL document CHEMBL4007388, “Synthesis and antiproliferative activity of monocationic arylthiophene derivatives” (Eur J Med Chem, 2017).
